In PubChem BioAssay (NCI) one finds TGI data, which are given here for 18 compounds.

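Five compound concentrations were applied to cells in 96-well plates for 48 hours; endpoints were derived by simple linear interpolation of the resulting dose-response curve. TGI denotes the concentration required for complete inhibition of growth.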

Common to all, as to assay: NCI tumour cell line growth inhibition, 48 h
The subject of assay [1] is T-47D breast.
Assay [2] has as its system UACC-62 melanoma.
The test system of assay [3] is IGROV1 ovarian.
The test system of assay [4] is ACHN renal.
Assay [5] concerns RPMI-8226 leukemia.
In assay [6] the test system is HOP-92 NSCLC.
Assay [7] concerns SK-MEL-5 melanoma.
The subject of assay [8] is SW-620 colon.
The test system of assay [9] is MCF7 breast.
The subject of assay [10] is SK-MEL-2 melanoma.
For assay [11], the system named is SNB-75 CNS.
Assay [12] relates to MOLT-4 leukemia.
For assay [13], the system named is EKVX NSCLC.

Turning to `N#CCN1CCN(CC#N)CCN(CC#N)CCN(CC#N)CC1`, the TGI in [1], in [2], in assay [3], in [4], in [5] and in [6] was more than 100 µM throughout. Further, the TGI in [7], in assay [8], in [9], in assay [10], in assay [11] and in assay [12] was more than 100 µM throughout.
`Cc1ncc([N+](=O)[O-])n1CCNC(=O)Cn1ccnc1[N+](=O)[O-]`: the TGI in [1], in [2], in assay [3], in assay [4], in assay [7] and in [8] was more than 100 µM each time. Besides, the TGI in assay [9], in assay [10], in [11] and in assay [12] was more than 100 µM throughout.
On to `Cc1ccc2nc(-c3ccc(-c4nc5ccc(C)cc5o4)c(O)c3)oc2c1`, for which the TGI in [1], in assay [2], in [4], in assay [5], in [6] and in [7] was more than 100 µM throughout. Moreover, the TGI in assay [8], in [9], in assay [10], in assay [11] and in [12] was more than 100 µM in each case.
As to `CNc1cccc2c1C(C)C[C@]1(C)C(=O)Nc3ccccc3[C@H]21` (some centres not stated), the TGI was more than 100 µM in [1]; more than 100 µM in assay [2]; more than 100 µM in [3]; 50.8 µM in assay [4]; more than 100 µM in assay [13]; more than 100 µM in assay [5]. Also, the TGI in assay [7] is more than 100 µM; in assay [8], more than 100 µM; in assay [9], 47.4 µM; in assay [10], 55.3 µM; in assay [11], 28.3 µM; in assay [12], more than 100 µM.
On to `COc1ccc(OC2OC(CO)C(O)C(O)C2O)cc1` (configuration not stated), for which the TGI in assay [1], in [2], in [3], in assay [4], in assay [13] and in assay [5] was more than 100 µM throughout. The TGI in [7], in assay [8], in assay [9], in assay [10], in [11] and in assay [12] was more than 100 µM in each case.
On to `Cn1c(-c2cccs2)cc(-c2ccsc2)c1-c1cccs1`, for which the TGI was 73.2 µM in assay [1]; more than 100 µM in assay [2]; more than 100 µM in assay [3]; more than 100 µM in [4]; more than 100 µM in [13]; more than 100 µM in [6]. Moreover, the TGI in assay [8], in [9], in [11] and in assay [12] was more than 100 µM in each case.
Turning to `Cc1cc(C)nc(NS(=O)(=O)c2ccc(Nc3nnc(/C=C/c4c(O)ccc5ccccc45)c(=O)n3N)cc2)n1`, the TGI was 51.5 µM in assay [1]; 60.1 µM in assay [2]; more than 100 µM in assay [3]; 53.8 µM in assay [4]; 78.5 µM in assay [13]; more than 100 µM in assay [5]. Further, the TGI was more than 100 µM in assay [6]; more than 100 µM in assay [8]; 45.7 µM in [9]; 55.9 µM in [11]; more than 100 µM in assay [12].
For `Cc1ccc(S(=O)(=O)NC(=O)NCC(N)=O)cc1`, the TGI in assay [1], in assay [2], in assay [3], in [4], in assay [5] and in assay [6] was more than 100 µM in each case. The TGI in assay [7], in assay [8], in [9], in assay [10], in [11] and in [12] was more than 100 µM in each case.
As to `CCNC1=C(NC(=O)c2ccc(OC)cc2)C(=O)c2ccccc2C1=O`, the TGI in assay [1], in assay [2], in assay [3], in [4], in assay [13] and in assay [5] was more than 100 µM each time. In addition, the TGI in assay [6], in assay [7], in assay [8], in assay [9], in assay [11] and in [12] was more than 100 µM in each case.
Consider `N#Cc1nc(-c2ccc(-c3nc(C#N)c(N)o3)cc2)oc1N`, for which the TGI in [1], in assay [2], in assay [3], in assay [4], in assay [13] and in assay [5] was more than 10 µM each time. Moreover, the TGI in [6], in assay [7], in [8], in assay [9], in assay [11] and in assay [12] was more than 10 µM throughout.
Turning to `COC(=O)/C=C1/OC(c2ccc(C)cc2C)=CC1=O`, the TGI in assay [1] was 38.4 µM; in [2], 26.5 µM; in assay [3] it was 22 µM; in assay [4] it was 29.3 µM; in assay [13] it was more than 100 µM; in [5] it was more than 100 µM. Further, the TGI in [6] is 45.6 µM; in assay [7], 38.2 µM; in [8], 10.4 µM; in assay [9] it was 28.3 µM; in assay [11] it was 29.4 µM; in assay [12], more than 100 µM.
As for `O=C(/C=C/c1ccccc1Br)c1ccccc1`, the TGI came out at 15.5 µM in assay [1]; 23.6 µM in [2]; 9.91 µM in [3]; 3.73 µM in [4]; 26.4 µM in [13]; 32.4 µM in assay [6]. For the same compound, the TGI in assay [7] is 22.6 µM; in [8] it was 3.02 µM; in [9], 2.27 µM; in assay [10], 31.3 µM; in [11], 25.4 µM.
In the case of `O=C1OC(C2Cc3ccc4c(c3C2=O)CCCC4)c2ccccc21` (configuration not stated), the TGI in assay [1] was more than 100 µM; in [2], 69.9 µM; in [3], more than 100 µM; in [4] it was more than 100 µM; in assay [13], more than 100 µM; in [5], more than 100 µM. Besides, the TGI in assay [7] was 84.7 µM; in assay [8], more than 100 µM; in assay [9], more than 100 µM; in assay [10], more than 100 µM; in assay [11] it was more than 100 µM; in assay [12], 47.5 µM.
In the case of `Oc1ccccc1-c1n[nH]c(-c2ccccc2O)n1`, the TGI in assay [1] was 78.5 µM; in assay [2], more than 100 µM; in assay [3], more than 100 µM; in assay [4] it was more than 100 µM; in [13], more than 34 µM; in assay [5], more than 31.1 µM. For the same compound, the TGI in [7], in assay [8], in [9], in assay [10], in assay [11] and in assay [12] was more than 100 µM in each case.
Take `CN(C)CCN=C1Nc2ccccc2C(=O)N2CSCC12` (configuration not stated): the TGI in [1], in assay [2], in [3], in [4], in assay [13] and in [5] was more than 100 µM in each case. For the same compound, the TGI in [7], in assay [8], in assay [9], in [10], in [11] and in assay [12] was more than 100 µM throughout.
As to `CCOC(=O)CNC(=O)CNC(=O)CNC(=O)CNNc1c(OCc2ccccc2)c(=O)c1=O`, the TGI in assay [1], in [2], in [3], in assay [4], in [13] and in assay [5] was more than 100 µM in each case. Besides, the TGI in [7], in assay [8], in assay [9], in [10], in [11] and in [12] was more than 100 µM each time.
Regarding `CCC1(CC)C(=O)NN(C(=O)c2ccc(Cl)cc2)C1=O`, the TGI in assay [1], in [2], in assay [3], in assay [4], in [13] and in [5] was more than 100 µM in each case. In addition, the TGI in assay [7], in assay [8], in assay [9], in [10], in assay [11] and in assay [12] was more than 100 µM throughout.
Regarding `CC(C)(C)Cc1cc(O)ccc1O`, the TGI in assay [1], in [2], in assay [3], in assay [4], in [13] and in [6] was more than 100 µM each time. Also, the TGI in [8], in assay [9], in [11] and in assay [12] was more than 100 µM in each case.
